Residues, ends and D or L forms follow the SMILES beside them. *: point of attachment. Cbz = O=C(OCc1ccccc1)*; CH2F = FC*
What was measured:
Jurkat cells = test: Flow cytometry of annexin V and scFv binding to Jurkat cells treated with staurosporine, camptothecin or anti-Fas (12 hr); assay type: cell-based
Procedure: (§1) Jurkat cells were harvested from culture and resuspended at a density of 10^6 /ml in RPMI 1640 containing 10% fetal bovine'serum (FBS). Apoptosis was induced for 12 hours with 1.0 μM staurosporine (Sigma Chemical Co. of St. Louis, Mo.), 2.0 μM camptothecin (Sigma), or 2.0 μg/ml anti-Fas antibody (clone 7C11; Beckman Coulter Inc. of Brea, Calif.). To inhibit apoptosis, parallel cultures were pre-incubated for 2 hours with 20 μM z-Val-Ala-Asp(Ome)-fluoromethylketone (z-VAD(Ome)-FMK) (Enzyme System Products of Livermore, Calif.). To inhibit membrane blebbing, parallel cultures were pre-incubated for 2 hours with 10 μM Y-27632 (Tocris of Ballwin, Mo.). At the end of the incubation period, 5×10^5 cells were aliquoted into tubes and stained for flow cytometry or confocal microscopy.
Cells were washed with 4.0 ml of ice-cold Hanks Balanced Salt Solution (Mediatech, Herndon, Va.) containing 1.0 mM CaCl2, 3% FBS, and 0.02% NaN3 (HBSS/FBS). […] 30,000 events were examined per sample on a FACSCalibur (BD Biosciences). The staining profiles were analyzed using FLOWJO™ software (Treestar, Inc. of San Carlos, Calif.).

apoptotic Jurkat cells = test: Confocal immunofluorescence microscopy of scFv and annexin V binding to apoptotic Jurkat cells; assay type: cell-based
Procedure: as §1
Cells were washed with HBSS and fixed with ice-cold 4% paraformaldehyde for 10 minutes. […] After incubation with the scFv, cells were washed once with HBSS/FBS and incubated with biotinylated annexin V (BD Biosciences) for 15 minutes on ice. Cells were then washed twice with HBSS/FBS and stained with streptavidin-conjugated Alexaflour 488 (Molecular Probes), Rhodamine Red-conjugated human serum IgG (Jackson Immunoresearch Laboratories) and the nucleic acid dye TO-PRO-3 (Molecular Probes). Following staining for 15 minutes on ice, cells were washed with HBSS/FBS and mounted onto poly-L-lysine-coated glass slides for viewing with a Zeiss LSM 510 laser scanning microscope (Carl Zeiss, Inc. of Thorwood, N.Y.).
Cells were washed with HBSS and fixed with ice-cold 4% paraformaldehyde for 10 minutes. […] After incubation with the scFv, cells were washed once with HBSS/FBS and incubated with biotinylated annexin V (BD Biosciences) for 15 minutes on ice. Cells were washed twice with HBSS/FBS and stained with streptavidin-conjugated Alexaflour 488 (Molecular Probes), Rhodamine Red-conjugated human serum IgG (Jackson Immunoresearch Laboratories) and the nucleic acid dye TO-PRO-3 (Molecular Probes). After a 15 minute incubation on ice, cells were washed with HBSS/FBS and mounted onto poly-L-lysine-coated glass slides for viewing with a Zeiss LSM 510 laser scanning microscope (Carl Zeiss Inc., Thorwood, N.Y.).

Structure (SMILES): CC[C@@]1(O)C(=O)OCc2c1cc1n(c2=O)Cc2cc3ccccc3nc2-1 [camptothecin]
- cells observed to bind annexin V (Jurkat cells; 12 hr incubation with the apoptotic stimulus): Approximately 29%

Structure (SMILES): C[C@@H](N)[C@H]1CC[C@H](C(=O)Nc2ccncc2)CC1 [Y-27632]
- effect on binding of annexin V (apoptotic Jurkat cells): did not affect
- blebbing and nuclear fragmentation (apoptotic Jurkat cells; anti-Fas treated cells, 10 μM): inhibited
- effect on binding of the D56R/S76R scFv (apoptotic Jurkat cells; anti-Fas treated cells, 10 μM): greatly reduced

Structure (SMILES): COC(=O)C[C@H](NC(=O)[C@H](C)NC(=O)[C@@H](NC(=O)OCc1ccccc1)C(C)C)C(=O)CF [z-VAD(OMe)-FMK, z-Val-Ala-Asp(Ome)-fluoromethylketone] (Cbz-Val-Ala-Asp(OMe)-CH2F)
- effect of pretreatment on binding of the D56R/S76R scFv (Jurkat cells; 20 μM, 2 hours pre-incubation): largely eliminated
- effect of pretreatment on staining with annexin V (Jurkat cells; 20 μM, 2 hours pre-incubation): decreased to near-background levels
- effect of pretreatment on staining of cells (apoptotic Jurkat cells; cells treated with camptothecin or anti-Fas antibody): greatly reduced
- effect of pretreatment on annexin V and scFv binding (apoptotic Jurkat cells; cells treated with staurosporine): reduces both annexin V and scFv binding to background levels
